# In PubChem BioAssay (NCI):
# Where “and” joins values, the source holds several entries; their conditions need not be identical. Equal entries are not always repeated.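 Method: 48-hour compound exposure of cells in 96-well plates, five concentrations, linear interpolation of endpoints. The concentration for 50% growth inhibition is given as GI50. At the TGI there is no net growth.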
# Legend:
# Assay in all cases: NCI tumour cell line growth inhibition, 48 h
# [1] = test system: COLO 205 colon
# [2] = test system: SN12K1 renal
# [3] = test system: DMS 273 small cell lung
# [4] = test system: XF 498 CNS
# [5] = test system: HOP-18 NSCLC
# [6] = test system: KM20L2 colon
# [7] = test system: P388 leukemia
# [8] = test system: SNB-78 CNS
# [9] = test system: DLD-1 colon
# [10] = test system: DMS 114 small cell lung
# [11] = test system: P388/ADR leukemia
# [12] = test system: M19-MEL melanoma
# [13] = test system: LXFL 529 NSCLC
# [14] = test system: RXF-631 renal
Compound,TGI [1],TGI [3],TGI [4],TGI [5],TGI [6],TGI [8],TGI [9],TGI [10],TGI [12],also measured
OC(c1cc(-c2ccc(Cl)cc2)nc2ccccc12)C1CCCCN1 (configuration not stated),3.19 µM,,,,,,,,,
N=[N+]=CC(=O)CCC(NC(=O)C(CCC(=O)C=[N+]=N)NC(=O)CCC(N)C(=O)O)C(=O)O (configuration not stated),> 100 µM,> 100 µM,> 100 µM,> 100 µM,> 100 µM,> 100 µM,> 100 µM,> 100 µM,> 100 µM,TGI [2]: > 100 µM; TGI [7]: > 100 µM; TGI [11]: > 100 µM
Nc1c(C(=O)Nc2ccc(C3=NCCN3)cc2)cccc1C(=O)Nc1ccc(C2=NCCN2)cc1,> 100 µM,> 100 µM,> 100 µM,> 100 µM,> 100 µM,> 100 µM,> 100 µM,> 100 µM,> 100 µM,TGI [2]: > 100 µM; TGI [7]: > 100 µM; TGI [11]: > 100 µM
C[n+]1ccc(Nc2ccc(NC(=O)c3ccc(Nc4cc[n+](C)c5ccc([N+](=O)[O-])cc45)cc3[N+](=O)[O-])cc2)cc1,> 100 µM,> 100 µM,66.9 µM and > 63.2 µM,50.4 µM and 59.5 µM,> 100 µM,> 100 µM,> 100 µM,27.2 µM and 41.5 µM,68 µM and 61 µM,TGI [2]: > 100 µM; TGI [7]: > 35.1 µM; TGI [13]: 50.8 µM; GI50 [8]: 42.3 µM and > 100 µM; GI50 [11]: 32.9 µM and 12 µM; TGI [11]: > 54.2 µM and 17.2 µM
CC(C)(C)C(=O)CP(=O)(O)O,> 100 µM,,,,,,,,,
Cc1c(Cl)c(S(N)(=O)=O)cc2c1NC=NS2(=O)=O,> 100 µM,,,,,,,,,
Oc1ccc(Cc2nccc3cc(O)c(O)cc23)cc1O,51.3 µM,,,,,,,,,
C1CSC(=[N+]2CC[N+](=C3SCCS3)CC2)S1,> 100 µM,> 100 µM,,> 100 µM,> 100 µM,> 100 µM,> 100 µM,> 100 µM,> 100 µM,TGI [13]: > 100 µM; TGI [14]: > 100 µM
C/C(=N\NC(=S)N1CCN(C)CC1)c1nc2ncccc2[nH]1,> 100 µM,,,,,,,,,
C[n+]1c2ccccc2c(NC(CS)C(=O)O)c2ccccc21 (configuration not stated),> 100 µM,89.9 µM,33.9 µM,> 100 µM,> 100 µM,> 100 µM,> 100 µM,95.8 µM,> 100 µM,TGI [13]: > 100 µM; TGI [14]: > 100 µM
Cc1ccc(N=Nc2ccc(N)cc2C)c(S(N)(=O)=O)c1,> 100 µM,,,,,,,,,
C[N+]1(Cc2ccc(Cl)c(Cl)c2)CCCC1C1CCCN(Cc2ccc(Cl)c(Cl)c2)C1 (configuration not stated),> 100 µM,,,,,,,,,
Nc1ccc(S(=O)(=O)Nc2ccc(Nc3c4ccccc4nc4ccccc34)cc2)cc1,14.9 µM,3.08 µM,20.6 µM,16.1 µM,10.6 µM,26.2 µM,16.6 µM,1.9 µM,21.1 µM,TGI [13]: 20.6 µM; TGI [14]: 10.8 µM
C/C=C(\C)C(=O)OC1C(C)=C2C(C1OC(=O)CCCC)C(C)(OC(C)=O)CC(OC(=O)CCCC)C1(O)C2OC(=O)C1(C)O (configuration not stated),2.58 µM,,,,,,,,,
O=C(NC1C=Nc2ccc([N+](=O)[O-])cc2NC1=O)c1cc(Cl)cc([N+](=O)[O-])c1 (configuration not stated),> 100 µM,> 100 µM,> 100 µM,,> 100 µM,> 100 µM,> 100 µM,84.2 µM,> 100 µM,TGI [13]: > 100 µM
CC(C)(C)NCC(O)c1ccc(O)c(CO)n1 (configuration not stated),> 100 µM,,,,,,,,,
CN(Cc1cccc2ccccc12)Cc1cccc2ccccc12,35.2 µM,,,,,,,,,
Cc1cc2sc(C)[n+](CCCOS(=O)(=O)[O-])c2cc1C,> 100 µM,,,,,,,,,
COC(=O)c1cc2cc3c(c(O)c2c(=O)o1)O[C@@]1(Oc2c(O)c4c(c(O)c2[C@H]1OC1CC(OC)C(O)C(C)O1)C(=O)C=C(OC)C4=O)[C@H](O)C3 (some centres not stated),14.1 µM,,,,,,,,,
